In US8252723B2, “Substituted 1-(3-pyridinyl)pyrazol-4-ylacetic acids, processes for their preparation and their use as herbicides and plant growth regulators” (Bayer CropScience AG, priority 2006, dated 2012):

Test system: weed plants such as Lolium multiflorum, Amaranthus retroflexus, Sinapis alba, Stellaria media and Setaria viridis
Experiment: Post-emergence effect on weeds (greenhouse pot test, visual scoring)
Assay type: in vivo
Conditions: application rate of 500 g or less of active substance per hectare, visual scoring after about 3 to 4 weeks vs untreated controls, read-out: herbicidal action (control)

SMILES | pest or weed control at up to 500 g/ha
Cc1ccncc1-n1nc(C)c(CC(=O)O)c1-c1ccccc1 [Example 1-10, [3-Methyl-1-(4-methylpyridin-3-yl)-5-phenyl-1H-pyrazol-4-yl]acetic acid] | ≥ 70%
COC(=O)Cc1c(C)nn(-c2cnccc2C)c1-c1ccccc1 [Example 2-10, Methyl [3-methyl-1-(4-methylpyridin-3-yl)-5-phenyl-1H-pyrazol-4-yl]acetate] | ≥ 70%
Cc1ccncc1-n1nc(C)c(CC(=O)OCC2CC2)c1-c1ccccc1 [Example 3-99, Cyclopropylmethyl [3-methyl-1-(4-methylpyridin-3-yl)-5-phenyl-1H-pyrazol-4-yl]acetate] | ≥ 70%
C#CCOC(=O)Cc1c(C)nn(-c2cnccc2C)c1-c1ccccc1 [Example 3-76, Prop-2-yn-1-yl [3-methyl-1-(4-methylpyridin-3-yl)-5-phenyl-1H-pyrazol-4-yl]acetate] | ≥ 70%
Cc1nn(-c2cccnc2)c(-c2ccccc2)c1CC(=O)O [Example 1-2, 3-methyl-5-phenyl-1-(3-pyridyl)pyrazole-4-acetic acid] | ≥ 70%
Cc1nn(-c2cccnc2)c(-c2cccc(Cl)c2)c1CC(=O)O [Example 1-17, [5-(3-Chlorophenyl)-3-methyl-1-pyridin-3-yl-1H-pyrazol-4-yl]acetic acid] | ≥ 70%
COC(=O)Cc1c(C)nn(-c2cccnc2)c1-c1cccc(Cl)c1 [Example 2-17, Methyl [5-(3-chlorophenyl)-3-methyl-1-pyridin-3-yl-1H-pyrazol-4-yl]acetate] | ≥ 70%
O=C(O)Cc1c(-c2ccccc2)nn(-c2cccnc2)c1-c1ccccc1 [Example 1-1, 3,5-diphenyl-1-(3-pyridyl)pyrazole-4-acetic acid] | ≥ 70%

Test system: weed plants such as Lolium multiflorum, Amaranthus retroflexus, Sinapis alba, Stellaria media and Setaria viridis
Experiment: Pre-emergence effect on weeds (greenhouse pot test, visual scoring)
Assay type: in vivo
Conditions: pre-emergence method, application rate of 1 kg or less of active substance per hectare, visual scoring after 3 to 4 weeks vs untreated controls; read-out: herbicidal action (control)
Text: Seeds or sections of rhizome from monocotyledonous and dicotyledonous weed plants were laid out in sandy loam soil in plastic pots, and covered with soil. The compounds according to the invention, formulated as wettable powders or emulsifiable concentrates, were then applied, in the form of aqueous suspensions or emulsions, at various dosages, onto the surface of the covering soil, at an application rate of 600 to 800 l of water/ha (converted).

SMILES | pest or weed control at up to 1000 g/ha
Cc1ccncc1-n1nc(C)c(CC(=O)O)c1-c1ccccc1 [Example 1-10, [3-Methyl-1-(4-methylpyridin-3-yl)-5-phenyl-1H-pyrazol-4-yl]acetic acid] | ≥ 70%
COC(=O)Cc1c(C)nn(-c2cnccc2C)c1-c1ccccc1 [Example 2-10, Methyl [3-methyl-1-(4-methylpyridin-3-yl)-5-phenyl-1H-pyrazol-4-yl]acetate] | ≥ 70%
Cc1ccncc1-n1nc(C)c(CC(=O)OCC2CC2)c1-c1ccccc1 [Example 3-99, Cyclopropylmethyl [3-methyl-1-(4-methylpyridin-3-yl)-5-phenyl-1H-pyrazol-4-yl]acetate] | ≥ 70%
C#CCOC(=O)Cc1c(C)nn(-c2cnccc2C)c1-c1ccccc1 [Example 3-76, Prop-2-yn-1-yl [3-methyl-1-(4-methylpyridin-3-yl)-5-phenyl-1H-pyrazol-4-yl]acetate] | ≥ 70%
Cc1nn(-c2cccnc2)c(-c2ccccc2)c1CC(=O)O [Example 1-2, 3-methyl-5-phenyl-1-(3-pyridyl)pyrazole-4-acetic acid] | ≥ 70%
Cc1nn(-c2cccnc2)c(-c2cccc(Cl)c2)c1CC(=O)O [Example 1-17, [5-(3-Chlorophenyl)-3-methyl-1-pyridin-3-yl-1H-pyrazol-4-yl]acetic acid] | ≥ 70%
COC(=O)Cc1c(C)nn(-c2cccnc2)c1-c1cccc(Cl)c1 [Example 2-17, Methyl [5-(3-chlorophenyl)-3-methyl-1-pyridin-3-yl-1H-pyrazol-4-yl]acetate] | ≥ 70%
O=C(O)Cc1c(-c2ccccc2)nn(-c2cccnc2)c1-c1ccccc1 [Example 1-1, 3,5-diphenyl-1-(3-pyridyl)pyrazole-4-acetic acid] | ≥ 70%

Test system: not given
Experiment: not given
Conditions: not given

melting point | SMILES
192 °C | Cc1nn(-c2cccnc2)c(-c2ccccc2)c1CC(=O)O [Example 1-2, 3-methyl-5-phenyl-1-(3-pyridyl)pyrazole-4-acetic acid]
172 °C | O=C(O)Cc1c(-c2ccccc2)nn(-c2cccnc2)c1-c1ccccc1 [Example 1-1, 3,5-diphenyl-1-(3-pyridyl)pyrazole-4-acetic acid]

Test system: summer wheat of the cultivar 'Triso'
Experiment: Plant growth regulation test: culm stabilization of crop plants
Assay type: in vivo
Conditions: application rate of 30 to 300 g of active substance per hectare, treated at stage BBCH 31, culm length measured after ears had formed
Procedure, shortened: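 Wettable-powder formulation with adjuvant (1 l/ha) sprayed at 300 l water/ha onto pot-grown plants at BBCH 31, then kept outdoors. After ear formation culm length was measured; culm stabilization is expressed as percent of untreated control.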

SMILES | longitudinal growth (culm length) of summer wheat
Cc1ccncc1-n1nc(C)c(CC(=O)O)c1-c1ccccc1 [Example 1-10, [3-Methyl-1-(4-methylpyridin-3-yl)-5-phenyl-1H-pyrazol-4-yl]acetic acid] | effectively shortened
COC(=O)Cc1c(C)nn(-c2cnccc2C)c1-c1ccccc1 [Example 2-10, Methyl [3-methyl-1-(4-methylpyridin-3-yl)-5-phenyl-1H-pyrazol-4-yl]acetate] | effectively shortened
Cc1ccncc1-n1nc(C)c(CC(=O)OCC2CC2)c1-c1ccccc1 [Example 3-99, Cyclopropylmethyl [3-methyl-1-(4-methylpyridin-3-yl)-5-phenyl-1H-pyrazol-4-yl]acetate] | effectively shortened
C#CCOC(=O)Cc1c(C)nn(-c2cnccc2C)c1-c1ccccc1 [Example 3-76, Prop-2-yn-1-yl [3-methyl-1-(4-methylpyridin-3-yl)-5-phenyl-1H-pyrazol-4-yl]acetate] | effectively shortened
Cc1nn(-c2cccnc2)c(-c2ccccc2)c1CC(=O)O [Example 1-2, 3-methyl-5-phenyl-1-(3-pyridyl)pyrazole-4-acetic acid] | effectively shortened
Cc1nn(-c2cccnc2)c(-c2cccc(Cl)c2)c1CC(=O)O [Example 1-17, [5-(3-Chlorophenyl)-3-methyl-1-pyridin-3-yl-1H-pyrazol-4-yl]acetic acid] | effectively shortened
COC(=O)Cc1c(C)nn(-c2cccnc2)c1-c1cccc(Cl)c1 [Example 2-17, Methyl [5-(3-chlorophenyl)-3-methyl-1-pyridin-3-yl-1H-pyrazol-4-yl]acetate] | effectively shortened
O=C(O)Cc1c(-c2ccccc2)nn(-c2cccnc2)c1-c1ccccc1 [Example 1-1, 3,5-diphenyl-1-(3-pyridyl)pyrazole-4-acetic acid] | effectively shortened
COC(=O)Cc1c(C)nn(-c2cccnc2)c1-c1ccc(C)cc1 [Example 2-16] | effectively shortened
